Activity calls are given as the source filed them. The calls are words filed in the database; no cut-off is given here.

Data set [1] concerns HCT-116. Put plainly: Cytotoxicity against human HCT-116 cells deficit of p53 expression assessed as induction of cell death at 20 uM incubated for 72 hrs by resazurin based analysis. It counts as functional.
The test system of data set [2] is HCT-116. The data set can be described thus: Induction of cell cycle arrest in human HCT-116 cells expressing wild type p53 assessed as accumulation of cells at S phase at 5 uM incubated for 24 hrs by PI staining based flow cytometry (reference value: 0.52 to 3.83%). The data set is classed as functional.
The test system of data set [3] is HCT-116. Put plainly: Induction of cell cycle arrest in human HCT-116 cells expressing wild type p53 assessed as accumulation of cells at G2 phase at 20 uM incubated for 24 hrs by PI staining based flow cytometry (reference value: 30.7 to 31.5%). The data set is classed as functional.
The test system of data set [4] is HCT-116. The data set can be described thus: Induction of apoptosis in human HCT-116 cells expressing wild type p53 assessed as viable cells at 10 uM incubated for 48 hrs by Annexin V-FITC/PI staining based flow cytometry (reference value: 82%). It counts as functional. The settings on record: read-out: Activity.
Data set [5] concerns HCT-116. Put plainly: Induction of apoptosis in human HCT-116 cells expressing wild type p53 assessed as early apoptotic cells at 10 uM incubated for 48 hrs by Annexin V-FITC/PI staining based flow cytometry (reference value: 12.5%). The data set is classed as functional.
Data set [6] concerns HCT-116. The data set can be described thus: Induction of apoptosis in human HCT-116 cells expressing wild type p53 assessed as early apoptotic cells at 20 uM incubated for 48 hrs by Annexin V-FITC/PI staining based flow cytometry (reference value: 12%). It counts as functional.
The subject of data set [7] is HCT-116. Put plainly: Induction of apoptosis in human HCT-116 cells expressing wild type p53 assessed as necrotic cells at 20 uM incubated for 48 hrs by Annexin V-FITC/PI staining based flow cytometry (reference value: 0.44%). It counts as functional.
Data set [8] addresses Cellular tumor antigen p53 (Homo sapiens) (UniProt P04637). Put plainly: Inhibition of p53 transcriptional activity in human HCT-116 cells assessed as inhibition of protein binding to p21 DNA promoter region at 20 uM incubated for 24 hrs by ChIP analysis. It counts as cell-based.
The subject of data set [9] is HCT-116. The data set can be described thus: Increase in mitochondrial complex III activity in human HCT-116 cells at 20 uM incubated for 24 hrs. It counts as functional, cell-based.
Data set [10] relates to HCT-116. The data set can be described thus: Induction of ferroptosis in human HCT-116 cells assessed as reduction in GSH content at 20 uM incubated for 24 hrs. The data set is classed as functional, cell-based.
The test system of data set [11] is HCT-116. Put plainly: Upregulation of p53 protein expression in human HCT-116 cells at 10 uM incubated for 24 hrs by western blot analysis. It counts as functional, cell-based.
Data set [12] concerns HCT-116. Put plainly: Antitumor activity against human HCT-116 cells xenografted in BALB/c nude mouse assessed as reduction in tumor volume at 10 mg/kg, ip qd for 12 days and measured every 2 days. It counts as functional, organism-based. The conditions noted are these: time 12.0 day.
For data set [13], the system named is HCT-116. The data set can be described thus: Potentiation of 5-FU-induced antitumor activity against human HCT-116 cells xenografted in BALB/c nude mouse assessed as reduction in tumor volume at 10 mg/kg, ip qd for 12 days and administered with 5-FU at 30 mg/kg, ip once every 3 days for 12 days and measured every 2 days. It counts as functional, organism-based. The conditions noted are these: time 12.0 day.

Data set [14] is described as follows: Toxicity against BALB/c nude mouse xenografted with human HCT-116 cells assessed as body weight loss at 10 mg/kg, ip qd for 12 days and measured every 2 days. It counts as organism-based. The settings on record: in vivo, 288 h, time 12 day.
Data set [15] in a line: Toxicity against BALB/c nude mouse xenografted with human HCT-116 cells assessed as body weight loss at 10 mg/kg, ip qd for 12 days and administered with 5-FU at 30 mg/kg, ip once every 3 days for 12 days and measured every 2 days. The data set is classed as organism-based. The conditions noted are these: in vivo, 288 h, time 12 day.
In data set [16] the test system is HCT-116. The data set can be described thus: Antitumor activity against human HCT-116 cells xenografted in BALB/c nude mouse assessed as reduction in tumor weight at 10 mg/kg, ip qd for 12 days. The data set is classed as functional, organism-based. The settings on record: time 12.0 day.
Data set [17] deals with HCT-116. Put plainly: Potentiation of 5-FU-induced antitumor activity against human HCT-116 cells xenografted in BALB/c nude mouse assessed as reduction in tumor weight at 10 mg/kg, ip qd for 12 days and administered with 5-FU at 30 mg/kg, ip once every 3 days for 12 days. The data set is classed as functional, organism-based. The settings on record: time 12.0 day.

Cellular tumor antigen p53 (Homo sapiens), sequence (P04637 whole entry, looked up): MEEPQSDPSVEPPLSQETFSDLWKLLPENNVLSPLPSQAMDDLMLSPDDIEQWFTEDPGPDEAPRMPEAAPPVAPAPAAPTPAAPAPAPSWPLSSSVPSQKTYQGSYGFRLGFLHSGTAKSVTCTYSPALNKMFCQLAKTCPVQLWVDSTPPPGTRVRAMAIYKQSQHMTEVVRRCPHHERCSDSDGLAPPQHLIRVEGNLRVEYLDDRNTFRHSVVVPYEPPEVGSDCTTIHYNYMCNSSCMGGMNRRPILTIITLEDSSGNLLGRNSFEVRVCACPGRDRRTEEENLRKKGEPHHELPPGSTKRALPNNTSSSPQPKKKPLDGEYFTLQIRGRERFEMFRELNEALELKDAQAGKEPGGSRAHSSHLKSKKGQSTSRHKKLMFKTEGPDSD

For `COc1ccc(-c2cc(=O)c3c(O)cc(O)cc3o2)cc1-c1c(O)cc(O)c2c(=O)cc(-c3ccc(O)cc3)oc12` [BILOBETIN], in the data set with HCT-116 [1], the result was inactive. Moreover, the Activity came to 1.81% in the data set with HCT-116 [2]; 41% with HCT-116 [3]; 28% in the data set with HCT-116 [5]; 39.9% with HCT-116 [6]; 0.49% in the data set on HCT-116 [7]. The viability at 10 µM in the data set on HCT-116 [4] came to 67.9%. In addition, the inhibition entry in [8] is “Active”. Moreover, the outcome in the data set on HCT-116 [9], with HCT-116 [10] and in the data set on HCT-116 [11] was Active.
On to `COc1cc(O)c2c(=O)cc(-c3ccc(OC)c(-c4c(O)cc(O)c5c(=O)cc(-c6ccc(O)cc6)oc45)c3)oc2c1` [GINKGETIN], for which the outcome in the data set on HCT-116 [1] was inactive. In addition, the Activity in the data set with HCT-116 [2] is 1.2%; with HCT-116 [3], 52.1%; in the data set with HCT-116 [5] it was 25.8%; with HCT-116 [6] it was 33.6%; with HCT-116 [7], 0.54%; in data set [14], “Non-Toxic”. For the same compound, the Activity result in data set [15] is on record as “Non-Toxic”. Moreover, the viability at 10 µM in the data set on HCT-116 [4] amounted to 67.6%. Also, the inhibition entry in data set [8] is “Active”. Moreover, the outcome with HCT-116 [9], with HCT-116 [10], in the data set with HCT-116 [11], with HCT-116 [12], with HCT-116 [13] and with HCT-116 [16] was Active. For the same compound, the result in the data set with HCT-116 [17] was Active.
For `COc1ccc(-c2cc(=O)c3c(O)cc(O)c(-c4cc(-c5cc(=O)c6c(O)cc(O)cc6o5)ccc4OC)c3o2)cc1` [ISOGINKGETIN], the outcome in the data set with HCT-116 [1] was inactive. Further, the Activity in the data set with HCT-116 [2] came to 3.37%; in the data set on HCT-116 [3] it was 46.6%; in the data set with HCT-116 [5] it was 26.5%; with HCT-116 [6] it was 40.6%; with HCT-116 [7] it was 0.79%. Moreover, in the data set with HCT-116 [4], the viability at 10 µM came out at 70%. In data set [8], the inhibition result was “Active”. For the same compound, the result with HCT-116 [9], in the data set on HCT-116 [10] and with HCT-116 [11] was Active.

The values above are taken from ChEMBL document CHEMBL5233288, “Ginkgo Biflavones Cause p53 Wild-Type Dependent Cell Death in a Transcription-Independent Manner of p53” (J Nat Prod, 2023).
